pEC50: −log10 of the molar value. Read-outs that look alike come from different tables or passages of the source.

Among the data in patent US20230302150A1, “ANTIBODY-TLR AGONIST CONJUGATES, METHODS AND USES THEREOF” (Ambrx, Inc., priority 2020, published 2023) are EC50 values, retold here.

The test concerns the target T1, hTLR7 (Homo sapiens, UniProt Q9NYK1).
T1 construct: expressed in transfected cells; host or cells: HEK-Blue hTLR7 reporter cell line
T1 sequence (Q9NYK1 27-1049): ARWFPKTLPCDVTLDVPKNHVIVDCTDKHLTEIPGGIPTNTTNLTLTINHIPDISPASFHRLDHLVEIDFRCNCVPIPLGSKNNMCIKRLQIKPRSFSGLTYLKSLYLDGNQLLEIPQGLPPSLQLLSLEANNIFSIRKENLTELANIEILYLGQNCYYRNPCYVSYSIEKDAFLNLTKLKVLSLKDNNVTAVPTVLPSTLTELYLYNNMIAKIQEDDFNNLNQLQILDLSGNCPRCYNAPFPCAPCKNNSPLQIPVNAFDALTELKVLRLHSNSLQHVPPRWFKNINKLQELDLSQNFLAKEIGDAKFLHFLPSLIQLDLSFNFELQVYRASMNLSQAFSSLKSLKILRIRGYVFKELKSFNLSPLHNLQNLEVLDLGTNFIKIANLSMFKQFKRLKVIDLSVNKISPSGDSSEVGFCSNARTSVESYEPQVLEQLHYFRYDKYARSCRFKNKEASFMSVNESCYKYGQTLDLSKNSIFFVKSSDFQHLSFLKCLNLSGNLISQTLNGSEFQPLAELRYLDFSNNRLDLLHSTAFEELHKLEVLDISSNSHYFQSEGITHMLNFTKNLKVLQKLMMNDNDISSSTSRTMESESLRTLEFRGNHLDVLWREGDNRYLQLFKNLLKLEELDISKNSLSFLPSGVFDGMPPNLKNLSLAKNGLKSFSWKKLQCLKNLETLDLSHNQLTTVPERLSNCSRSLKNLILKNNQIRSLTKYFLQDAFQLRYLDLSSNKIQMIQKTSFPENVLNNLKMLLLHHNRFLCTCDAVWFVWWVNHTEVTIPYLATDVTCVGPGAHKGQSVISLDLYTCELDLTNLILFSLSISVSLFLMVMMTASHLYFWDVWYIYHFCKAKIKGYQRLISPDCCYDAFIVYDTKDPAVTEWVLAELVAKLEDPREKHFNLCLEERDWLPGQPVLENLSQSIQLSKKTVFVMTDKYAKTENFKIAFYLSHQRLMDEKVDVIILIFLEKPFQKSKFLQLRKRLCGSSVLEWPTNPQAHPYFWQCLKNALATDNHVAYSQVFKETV
Nature of the test: HEK-Blue hTLR7 reporter assay (NF-kB-induced SEAP, Quanti-Blue). The class given is cell-based. On the procedure:
HEK-Blue™ hTLR7 cells were incubated in HEK-Blue™ Detection medium and stimulated with increasing concentrations of TLR7 or TLR8 or TLR7/8 agonists. […] The EC50 was determined from dose-response curve using Prism Software.

[1] abbreviates: Table 12, TLR7 agonists attached to a linker, read-out: TLR Agonist Payload + Linkers EC50.
[2] abbreviates: Table 15, drug linker, read-out: TLR Agonist + Linker (DL) - EC50.
Where [3] appears, read: Table 15, pAF containing final metabolite, read-out: TLR Agonist + Linker + nnAA (DL-pAF) - EC50.
Where [4] appears, read: Table 11, TLR7 activities, read-out: EC50.

As for `CCCCc1nc2c(N)nc3ccccc3c2n1CCCCNC(=O)c1ccc(N)c(OC)c1` [AXC-725, 4-amino-N-(4-(4-amino-2-butyl-1H-imidazo[4,5-c]quinolin-1-yl)butyl)-3-methoxybenzamide], under “Table 10, read-out: TLR7 EC50”, the pEC50 is 6.60.

With `CCCCc1nc2c(N)nc3cccnc3c2n1CCCCNC(=O)c1cnccn1` [AXC-732, N-(4-(4-amino-2-butyl-1H-imidazo[4,5-c][1,5]naphthyridin-1-yl)butyl)pyrazine-2-carboxamide], the pEC50 (Table 10, read-out: TLR7 EC50) is 6.59.

Regarding `CCCCc1nc2c(N)nc3cccnc3c2n1CCCCNC(=O)c1ccc(N)c(OC)c1` [AXC-736, 4-amino-N-(4-(4-amino-2-butyl-1H-imidazo[4,5-c][1,5]naphthyridin-1-yl)butyl)-3-methoxybenzamide], the pEC50 (Table 10, read-out: TLR7 EC50) was 6.67.

For `CCc1nc2c(N)nc3ccccc3c2n1CCCCNC(=O)c1ccc(N(C)C)cc1` [AXC-738, N-(4-(4-amino-2-ethyl-1H-imidazo[4,5-c]quinolin-1-yl)butyl)-4-(dimethylamino)benzamide], for the setting “Table 10, read-out: TLR7 EC50”, the pEC50 is 7.96.

Regarding `CCc1nc2c(N)nc3ccccc3c2n1CCCCNC(=O)/C=C/c1ccc(N(C)C)cc1` [AXC-739, (E)-N-(4-(4-amino-2-ethyl-1H-imidazo[4,5-c]quinolin-1-yl)butyl)-3-(4-(dimethylamino)phenyl)acrylamide], under “Table 10, read-out: TLR7 EC50”, the negative-log EC50 (pEC50) was 7.55.

For `CCCCc1nc2c(N)nc3ccccc3c2n1CCCCNC(=O)c1ccc(N(C)C)cc1` [AXC-740, N-(4-(4-amino-2-butyl-1H-imidazo[4,5-c]quinolin-1-yl)butyl)-4-(dimethylamino)benzamide], under “Table 10, read-out: TLR7 EC50”, the pEC50 was 6.94.

As to `CCCCc1nc2c(N)nc3cccnc3c2n1CCCCNC(=O)c1ccc(N(C)C)cc1` [AXC-743, N-(4-(4-amino-2-butyl-1H-imidazo[4,5-c][1,5]naphthyridin-1-yl)butyl)-4-(dimethylamino)benzamide], the pEC50 (Table 10, read-out: TLR7 EC50) is 7.25.

Take `CCCCc1nc2c(N)nc3ccccc3c2n1CCCCNC(=O)c1ccc(N2CCCC2)cc1` [AXC-777, N-(4-(4-amino-2-butyl-1H-imidazo[4,5-c]quinolin-1-yl)butyl)-4-(pyrrolidin-1-yl)benzamide]: where the note is “Table 10, read-out: TLR7 EC50”, the pEC50 was 6.04.

As for `CCCCc1nc2c(N)nc3ccccc3c2n1CCCCNC(=O)c1ccc(N)c(F)c1` [AXC-778, 4-amino-N-(4-(4-amino-2-butyl-1H-imidazo[4,5-c]quinolin-1-yl)butyl)-3-fluorobenzamide], under “Table 10, read-out: TLR7 EC50”, the pEC50 was 7.08.

Consider `CCCCc1nc2c(N)nc3ccccc3c2n1CCCCNC(=O)c1cc(F)c(N)c(F)c1` [AXC-779, 4-amino-N-(4-(4-amino-2-butyl-1H-imidazo[4,5-c]quinolin-1-yl)butyl)-3,5-difluorobenzamide], for which the pEC50 (Table 10, read-out: TLR7 EC50) is 6.62.

Take `CCCCc1nc2c(N)nc3ccccc3c2n1CCCCNC(=O)c1cc(F)c(NC(=O)[C@H](C)NC(=O)CON)c(F)c1` [AXC-800, (S)—N-(4-(4-amino-2-butyl-1H-imidazo[4,5-c]quinolin-1-yl)butyl)-4-(2-(2-(aminooxy)acetamido)propanamido)-3,5-difluorobenzamide]: the pEC50 (Table 10, read-out: TLR7 EC50) is less than 5.30.

For the compound `CCCCc1nc2c(N)nc3ccccc3c2n1CCCCNC(=O)c1cc(F)c(NC(=O)[C@H](CCCNC(N)=O)NC(=O)[C@@H](NC(=O)CON)C(C)C)c(F)c1` [AXC-801, N-(4-(4-amino-2-butyl-1H-imidazo[4,5-c]quinolin-1-yl)butyl)-4-((S)-2-((S)-2-(2-(aminooxy)acetamido)-3-methylbutanamido)-5-ureidopentanamido)-3,5-difluorobenzamide], the pEC50 (Table 10, read-out: TLR7 EC50) is less than 5.30.

Take `CCCCc1nc2c(N)nc3ccccc3c2n1CCCCNC(=O)c1cc(F)c(NC(=O)[C@H](CCCNC(N)=O)NC(=O)[C@@H](NC(=O)CCOCCON)C(C)C)c(F)c1` [AXC-802, N-(4-(4-amino-2-butyl-1H-imidazo[4,5-c]quinolin-1-yl)butyl)-4-((S)-2-((S)-2-(3-(2-(aminooxy)ethoxy)propanamido)-3-methylbutanamido)-5-ureidopentanamido)-3,5-difluorobenzamide]: the pEC50 (Table 10, read-out: TLR7 EC50) is less than 5.30.

Regarding `CCCCc1nc2c(N)nc3ccccc3c2n1CCCCNC(=O)c1cccc(N)c1` [AXC-803, 3-amino-N-(4-(4-amino-2-butyl-1H-imidazo[4,5-c]quinolin-1-yl)butyl)benzamide], the pEC50 (Table 10, read-out: TLR7 EC50) is 6.48.

As to `CCCCc1nc2c(N)nc3ccccc3c2n1CCCCNC(=O)c1ccc(F)c(N)c1` [AXC-804, 3-amino-N-(4-(4-amino-2-butyl-1H-imidazo[4,5-c]quinolin-1-yl)butyl)-4-fluorobenzamide], the pEC50 (Table 10, read-out: TLR7 EC50) was 6.58.

Turning to `CCCCCNc1nc(N)nc2ccn(Cc3cc(CN4CCN(CCCNC(=O)CON)CC4)ccc3OC)c12` [AXC-860, reference compound], the pEC50 (Table 14, read-out: TLR7 EC50) is 6.92.

As for `CCCCOc1nc(N)c2[nH]c(=O)n(Cc3ccc(CNC(=O)CON)cc3)c2n1` [AXC-862], the negative-log EC50 (pEC50) under setting [1] was 6.40, the pEC50 under setting [2] is 6.40 and the pEC50 under setting [3] was 6.92.

Consider `CCCCNc1nc(N)c2[nH]c(=O)n(Cc3ccc(N4CCN(CCNC(=O)CON)CC4)nc3)c2n1` [AXC-867], for which the pEC50 reads like this: under setting [1], 6.08; under setting [2], 6.08; under setting [3], 6.55.

`CCCCNc1nc(N)c2[nH]c(=O)n(Cc3ccc(NCCN(C)CCNC(=O)CCOCCOCCOCCOCCON)nc3)c2n1` [AXC-869, NH2O-PEG3-Pr-(6-amino-9-((6-(2-((2-aminoethyl)(methyl)amino)ethylamino)pyridin-3-yl)methyl)-2-(butylamino)-7H-purin-8(9H)-one)acetamide]: the pEC50 under setting [1] is less than 5.00.

For `CCCCOc1nc(N)c2[nH]c(=O)n(Cc3ccc(N4CCC(CCNC(=O)CCOCCON)CC4)nc3)c2n1` [AXC-876, N-(2-(1-(5-((6-amino-2-butoxy-8-oxo-7H-purin-9(8H)-yl)methyl)pyridin-2-yl)piperidin-4-yl)ethyl)-3-(2-(aminooxy)ethoxy)propanamide], the pEC50 was 6.44 under setting [1], 6.44 under setting [2] and 6.61 under setting [3].

As for `CCCCOc1nc(N)c2[nH]c(=O)n(Cc3ccc(CN4CCC(CCNC(=O)OC(C)(C)C)CC4)cc3)c2n1` [AXC-877, tert-butyl 2-(1-(4-((6-amino-2-butoxy-8-oxo-7,8-dihydro-9H-purin-9-yl)methyl)benzyl)piperidin-4-yl)ethylcarbamate], the pEC50 was 8.26 under setting [4] and greater than 8.00 (text to Table 11, TLR7, read-out: EC50).

As for `CCCCOc1nc(N)c2[nH]c(=O)n(Cc3ccc(CN4CCC(CCN)CC4)cc3)c2n1` [AXC-878, 6-amino-9-(4-((4-(2-aminoethyl)piperidin-1-yl)methyl)benzyl)-2-butoxy-7H-purin-8(9H)-one], under setting [4], the pEC50 was 7.30.

Take `CCCCOc1nc(N)c2[nH]c(=O)n(Cc3ccc(CN4CCC(CCNC(=O)CCOCCON)CC4)cc3)c2n1` [AXC-880, N-(2-(1-(4-((6-amino-2-butoxy-8-oxo-7H-purin-9(8H)-yl)methyl)benzyl)piperidin-4-yl)ethyl)-3-(2-(aminooxy)ethoxy)propenamide]: the pEC50 is 6.39 under setting [1], 6.39 under setting [2] and 6.78 under setting [3].

Turning to `CCCCOc1nc(N)c2[nH]c(=O)n(Cc3ccc(CNCCCCCCN)cc3)c2n1` [AXC-881, 6-amino-9-(4-((6-aminohexylamino)methyl)benzyl)-2-butoxy-7H-purin-8(9H)-one], under setting [4], the pEC50 is 7.06.
